Legend:
[1] = system: BCR-Abl, Crk and phospho Stat5AY^694/699 in K562 cells; assay: Western blot analysis of K562 cells treated with AN024; assay type: cell-based, human
Method: Expression levels of BCR-Abl, Crk and phospho Stat5AY^694/699 were determined by western blot analysis in K562 cells treated with various concentrations of AN024 (1, 2.5, 5 or 10 μg/ml) for 12 h.
K562 cells were treated with 1, 2.5, 5, or 10 μg/ml of AN024. After 12 h, cells were collected and total cell lysates were prepared in extraction buffer containing Tris [0.1 M, pH 7.5], Triton-X114 (1.0%), EDTA (10 mM), aprotinin, and phenylmethylsulphonyl fluoride. […] The membranes were probed for 2 h with antibodies against BCR-Abl, Crk and phospho Stat5AY^694/699 per standard protocols. The membranes were subsequently washed three times with PBS to remove excess primary antibodies, incubated with appropriate HRP conjugated secondary antibodies as required, and then developed according to enhanced chemiluminesence protocol (Amersham, Arlington Heights, Ill.).
FIG. 1 illustrates results of this testing. K562 cells were treated with various concentrations of AN024 (1-10 μg/ml). Cell lysates were collected and western blot analysis was performed per standard protocols. Expression levels of BCR-Abl, Crk and Stat5AY^694/699 were determined.

[2] = system: Baf3 murine leukemia cells T315I; assay: Blast cell count in nude mice implanted with Baf3 T315I cells; assay type: in vivo; conditions: Baf3T315I; Imatinib 10 mg/kg, AN019 20 mg/kg, AN024 20 mg/kg, oral gavage or ip from day 15; day 42
From the text: (§1) Blood smears were obtained via the tail vein or via the femoral vein every 6th day and blast cells counted and graphically represented.
(§2) Abdominal swelling and decrease in activity was monitored daily, blood smear taken via the tail vein or the femoral vein every 6th day and H&E stained as per standard protocols. 42 days after implantation, mice were sacrificed and spleens harvested.
(§3) Blood from tail vein or the femoral vein was taken every 6th day from Baf3 cell implanted mice until day 42.
(§4) Nude mice were intraperitoneally implanted with Baf3 mutant cells (wt, T315I, M351T or E255K). […] Blood was drawn from the femoral vein or tail vein every 6th day and blast cell count determined and graphically represented.

[3] = system: Baf3 murine leukemia cells M351T; assay: Blast cell count in nude mice implanted with Baf3 M351T cells; assay type: in vivo; conditions: Baf3M351T; Imatinib 10 mg/kg, AN019 20 mg/kg, AN024 20 mg/kg, oral gavage or ip from day 15; day 42
From the text: as §1, §2, §3, §4

[4] = system: Baf3 murine leukemia cells E255K; assay: Blast cell count in nude mice implanted with Baf3 E255K cells; assay type: in vivo; conditions: Baf3E255K (printed E225K); Imatinib 10 mg/kg, AN019 20 mg/kg, AN024 20 mg/kg, oral gavage or ip from day 15; day 42
From the text: as §1, §2, §3, §4

K562luc cells = assay: Determination of drug temporal penetrance (Tp); assay type: in vivo, nude mice; conditions: daily ip from day 15 to day 35, imaged till day 45; AN019 20 mg/kg, AN024 20 mg/kg, Imatinib 10 mg/kg
Method: The temporal penetrance was calculated applying the following equation, […].
P=photon counts at day ‘a’, day ‘ter’, or day ‘b’ where ‘a’ is the day when drug treatment was stopped and ‘ter’ is the day when the experiment was terminated and ‘b’ is the day where P is minimum after day a but before day ‘ter’.
n=number of animals alive when P was measured.
The animals were imaged at 6 day intervals post transplantation. […] Drug treatment was stopped on day 35 and animals were imaged till day 45, and calculated as described in methods.

ZR71 breast cancer cells = assay: In vitro angiogenic assay, ZR-71 conditioned media on human dermal endothelial cells; assay type: cell-based; conditions: ZR-71 cells, radiation status not specified
Method: (§5) The in vitro angiogenesis of 4910, 5310 and U87 glioma cells and MDAMB231 and ZR71 breast cancer cells in the presence of specified concentrations of compounds were determined as follows, cells (2×10^4/well) were seeded in 8-well chamber slides and were treated with various concentrations of test compounds. After a 24 h incubation period, the conditioned media was removed and added to a 4×10^4 human dermal endothelial cell (monolayer in 8-well chamber slides) and the human dermal endothelial cells were allowed to grow for 72 h. Cells were then fixed in 3.7% formaldehyde and stained with H&E and photographed.

4910 glioma cells = assay: In vitro angiogenic assay, 4910 conditioned media on human dermal endothelial cells; assay type: cell-based; conditions: 4910 cells, with radiation
Method: as §5

5310 glioma cells = assay: In vitro angiogenic assay, 5310 conditioned media on human dermal endothelial cells; assay type: cell-based; conditions: 5310 cells
Method: as §5

U87 glioma cells = assay: In vitro angiogenic assay, U87 conditioned media on human dermal endothelial cells; assay type: cell-based; conditions: with radiation
Method: as §5

[5] = system: AKT, ERK and Pi3k in ZR71 breast cancer cells; assay: Western blot analysis, ZR71; assay type: cell-based; conditions: 24 h
Method: (§6) Western blot analysis of 4910, 5310 and U87 glioma cells and MDAMB231 and ZR71 breast cancer cells in the presence of specified concentrations of compounds were assessed as per standard protocols. Cells were treated with AN019, AN024 or Temozolomide at the specified concentrations. 24 h after treatment, cells were collected and cell lysates extracted. Equal quantities of proteins were fractionated by SDS-PAGE. The fractionated proteins were blotted on to nylon membranes and immunoprobed for AKT, ERK and Pi3k. Breast cancer cell protein isolates were additionally immunoprobed for EGFR, ErbB1, ErbB2 and ErbB3.

[6] = system: AKT, ERK and Pi3k in U87 glioma cells; assay: Western blot analysis, U87; assay type: cell-based; conditions: 24 h
Method: as §6

[7] = system: pAKT and pERK in glioma and breast cancer cells; assay: Western blot analysis of pAKT and pERK, cell line not stated; assay type: cell-based; conditions: both with and without radiation
Method: as §6

[8] = system: K562 luciferase expressing cells; assay: Leukemic survival study; assay type: in vivo, nude mice
From the text: K562 luciferase expressing cells were implanted intraperitoneally into nude mice; the mice were scanned using the xenogeny IVIS image station after ip injections of luciferin does determine implantations. Drug treatment was started as in previous studies day 15 after implantation. The animals were given treatment till day 42, after which drug treatment was stopped and survival of the animals determined as per the animal care regulations. […] Drug treatment was withdrawn on day 42 post implantation and survival of animals determined.

K562 = assay: ED50 and therapeutic index in leukemic mice (K562); assay type: in vivo; conditions: Mus musculus, K562, po, read-out: ED50 (po) Mice
in vivo = conditions: mouse

For Cc1ccc(NC(=O)c2cccc(S(=O)(=O)C(F)(F)F)c2)cc1Nc1nccc(-c2cccnc2)n1 [AN024, (3-trifluoromethylsulfonyl)-N-[4-methyl-3-(4-pyridin-3yl-pyrimidin-2ylamino)-phenyl]-benzamide], the “BCR-Abl, Crk and phospho Stat5AY^694/699 protein levels” value ([1]; K562 cells, 1, 2.5, 5 or 10 μg/ml, 12 h, western blot) was “decreased in a dose dependent manner”, the BCR-Abl kinase activity ([1]; K562 cells, 1-10 μg/ml) was “inhibited BCR-Abl kinase activity in a dose dependent manner” and the “blast cell count in blood smears” value [2] was “significant decrease in blast cell count”. For the same molecule, the “blast cell count in blood smears” value [3] was “significant decrease in blast cell count”, the “blast cell count in blood smears” value [4] was “significant decrease in blast cell count” and the “temporal penetrance (Tp)” value (K562luc cells) was 2.4. The inhibition of angiogenesis (ZR71 breast cancer cells) was “complete inhibition of angiogenesis”, the inhibition of angiogenesis (4910 glioma cells) was “significant inhibition of angiogenesis” and the inhibition of angiogenesis (5310 glioma cells; after radiation treatment) was “angiogenesis further inhibited”. The inhibition of angiogenesis (5310 glioma cells; control conditions (without radiation)) was “inhibition of angiogenesis was seen”, the inhibition of angiogenesis (U87 glioma cells) was “increase in inhibition after radiation” and the AKT levels ([5]; ZR71, after radiation) was “decrease in AKT expression”. The PI3k levels ([5]; ZR71, with radiation) was “decrease in PI3k levels”, the AKT levels ([5]; ZR71, without radiation) was “did not show any significant change” and the ERK levels ([6]; U87, after radiation) was “decrease was enhanced after radiation”. The ERK levels ([6]; U87, without radiation) was “slight decrease in ERK levels”, the pERK levels [7] was “reduction on pERK levels but to a lesser extent than AN019” and the “blast cell count from blood smears after withdrawal of drug treatment” value ([8]; drug treatment withdrawn on day 42 (FIG. 6C)) was “showed effectiveness after withdrawal of drug treatment”. For the same molecule, the “animals showing no signs of leukemia / complete absence of leukemic symptoms” value ([8]; of 10 animals, treatment day 15 to day 42, then withdrawn, AN024 read on day 55) was 8 animals, the “mortality (day post implantation)” value ([8]; treatment day 15 to day 42, then withdrawn) was 38 days and the ED50 (K562) was 10 mg/kg. The MTD (in vivo) was 500 mg/kg and the LD50 (in vivo; po) was 1440 mg/kg.

Source: US7939541B2, “Intermediates and a process employing the intermediates for the preparation of (3-trifluoromethylsulfonyl)-N-[4-methyl-3-(4-pyridin-3yl-pyrimidin-2ylamino)-phenyl]-benzamide” (Natco Pharma Limited, priority 2004, dated 2011)
